Assays:
[1] = USP Type II sink dissolution, 2.0 wt % SLS in pH 6.8 buffer; assay type: physicochemical; details: for % LC Release, 10μ filtered: 500 mgA in 900 mL, 37° C.
Description: LMPs 1, 2, and 3 were tested in a USP Type II sink dissolution experiment along with caprylic triglyceride (Miglyol 808) oil. 500 mgA of formulation was dosed into a 1000 mL vessel containing 900 mL of 2.0wt % SLS in pH 6.8 buffer. Samples were taken at 30 minutes and 17.5 hours.
LMP-5, 7, 9, and 11 formulations were tested in a USP Type II sink dissolution experiment sink performance test using methods outlined described in EXAMPLE 3 (Tables 3-A, 3-B). […] The release rate trends as expected, in that adding more carnauba wax to the LMP matrix slows the dissolution. This is because carnauba wax is more hydrophobic than Compritol 888. […] Adding a pore former to the base LMP-11 formulation may allow for increased dissolution performance by enhancing water permeability while maintaining the desirable physical and handling attributes.
Formulations BREC1690-155, 156, 160, 161, and 162 were tested in a sink dissolution performance test using methods outlined herein at EXAMPLE 3 (Tables 3-A and 3-B). The dissolution rate was increased by the addition of a water soluble component (PVP 17PF, PVP-VA 64 or poloxamer P407). Dissolution was tested on formulations BREC1690-155, 156, 160, 161, and 162. Comparisons of previous Compritol based LMPs (LMP-2 and LMP-5) and BREC1690- 155, 156, and 162 with a dissolution enhancer are shown in FIG. 22.

[2] = Visual dissolution study in SLS/water solution (scintillation vials); assay type: physicochemical; details: 250 mg oil in 10 ml 0.25% or 0.5% SLS in water, stirred 20 minutes
Description: Visual dissolution studies were conducted at small scale using 20 ml scintillation vials on LMP formulations 1 through 3. The test was conducted at 37° C., 25° C. and 5° C. using a 0.25% Sodium Laurel Sulfate (SLS) in water solution. A heated aluminum block and heated stir plate were used in the study. 500 mg (250 mgA, 25 mgA/mL) of each LMP formulation was added to 10 mL pre-heated 0.25% SLS solution. The samples were stirred using a Teflon stir bar on a heated stir plate to maintain temperature for 20 minutes. After 20 minutes, the LMP suspensions were allowed to settle and were assessed visually.
Finally the test was repeated using only LMP-1 and a 0.5% SLS/water solution to access if additional surfactant would help with the apparent dissolution by increasing the solubility of the oil in water.
An oil dissolution control test was conducted to determine how the caprylic triglyceride (Miglyol 808) oil dissolves into an SLS/water solution. Two SLS stock solutions were made at 0.25% and 0.5% SLS in water. 10 ml of each SLS solution was added to a scintillation vial along with a magnetic stir bar. 250 mg of caprylic triglyceride (Miglyol 808) oil was added to each vial and stirred for 20 minutes. Images were taken after 10 minutes and two days. […] The vial does appear slightly hazy in the 10 minute photo indicating some oil is likely emulsified in the water phase. […]

caprylic triglyceride [Miglyol 808]
% LC Release, centrifuged ([1]; 30 minutes): 31.6% ± 2% | % LC Release, 10μ filtered ([1]; 30 minutes): 64% (n = 1) % LC | % LC Release, 0.2μ filtered ([1]; 17.5 hours): 87% ± 7% | % LC Release, centrifuged ([1]; 17.5 hours): 27.3% ± 0.6% | % LC Release, 10μ filtered ([1]; 17.5 hours): 46.5% ± 0.5% | oil dissolution control, visual [2]: majority of the oil floats on top of the water rather than going into solution

From US20210186915A1, “PHARMACEUTICAL COMPOSITIONS HAVING HIGH DRUG LOADINGS OF MEDIUM CHAIN TRIGLYCERIDES AND METHODS RELATED THERETO” (Cerecin Inc., priority 2018, published 2021)
